Data taken from patent US20260041637A1, “VESICLES BASED ON GLUCOSE-DERIVED SURFACTANTS AND PHYTOSTEROLS” (NANOMOL TECHNOLOGIES, S.L., priority 2022, published 2026).

Legend:
[1] = Antioxidant capacity by 2,2-diphenyl-1-picrylhydrazyl (DPPH) assay; type: biochemical; conditions: molar ratio DPPH:TCP 1:0.3, 30 minutes in the dark, 517 nm; mean ± s.d. of two independent experiments
Method: DPPH assay is a well-known and established method to measure antioxidant capacity of a molecule. […] When DPPH is in its oxidated form presents a violet color that changes to yellow/white when is reduced. This color change can be followed using UV-Vis spectroscopy. The assay was carried out in ethanol always maintaining a molar ratio DPPH: TCP of 1:0.3. In order to have 3 mL of final volume, DPPH was diluted in ethanol to have a final concentration of 63.4 μM. Free TCP and TCP DELOS-NVs were diluted to have a final concentration of 19 µM of TCP. Each solution was then mixed and kept at room temperature for 30 minutes in the dark. The absorbance of the solution was measured at 517 nm using a Thermo Scientific™ Evolution™ 201/220 UV-Visible spectrophotometer (Thermo Scientific). The percentage of TCP antioxidant capacity was calculated using the Equation 3, where Abscontrol is the absorbance at 517 nm of DPPH in ethanol and Abssample is the absorbance at 517 nm of the sample prepared as described (free TCP or TCP DELOS-NVs with DPPH).
The antioxidant capacity of TCP was evaluated once it was integrated in the NVs to verify that the molecule was still active after the encapsulation. The antioxidant capacity was measured by the 2,2-diphenyl-1-picrylhydrazyl (DPPH) assay. DPPH is a stable free radical that can be reduced in the presence of hydrogen-donating antioxidants such as TCP. […]

[2] = Entrapment efficiency (EE) by UV-Vis spectroscopy; type: physicochemical
Method: Entrapment efficiency (EE) of each active was determined by UV-Vis absorbance using an UV-Vis spectrophotometer (Thermo Scientific™ Evolution™ 201 UV-Visible Spectrophotometers, Thermo Scientific). For lipophilic actives (7-DHC, CBD, TCP, DiD and Dil) Vs membrane was dissociated to release the active by diluting the sample in ethanol at 80% (v/v) until a value of absorption below 1 and inside the calibration curve obtained. The concentration of each active was determined using a calibration curve, using the same media than the corresponding Vs system. The active was quantified before and after filtering process and both values were used to calculate the EE using Equation 1 (as described herein). As the lipophilic molecules are not soluble in aqueous media, it was considered that the filtered sample contained only the integrated active, since all the precipitated and non-integrated active should remain in the filter.
A different protocol was followed for hydrophilic actives (NCA, AG and MTX), in which, after the Vs filtration process, another step was applied to separate the non-integrated active. For NCA and AG, an ultracentrifugation step of the filtered sample was performed (6h, 4° C., 600000g) (Sorvall Discovery M150 Micro-Ultracentrifuge, Thermo Scientific). […]

[3] = Entrapment efficiency (EE) by fluorescence spectroscopy (proteins); type: physicochemical
Method: iii) Entrapment efficiency (EE) by fluorescence spectroscopy: Entrapment efficiency (EE) of both proteins was determined by fluorescence spectroscopy using a Varian Cary Eclipse (Agilent Technolo-gies, Santa Clara, USA). In both cases, the separation of the non-integrated protein from that integrated in Vs was done by TFF (KrosFlo® Research 11i TFF diafiltration system (KR2i), with a mPES filter hollow column cut-off 300 KDa (C04-E100-05-N, Spectrum Labs, SL). Then, the permeate fraction was recovered and analyzed by fluorescence, exciting the proteins at 278 nm. The concentration was calculated using a calibration curve using the same media of the corresponding Vs system. The entrapment efficiency was then calculated using Equation 2, as described herein.

Cc1c(C)c2c(c(C)c1O)CCC(C)(CCCC(C)CCCC(C)CCCC(C)C)O2 (racemic) [Free TCP, DL-alpha-Tocopherol]
Antioxidant capacity (%) [1]: 60 ± 9%

C=C(C)[C@@H]1CCC(C)=C[C@H]1c1c(O)cc(CCCCC)cc1O [CBD, cannabidiol]
EE [%] ([2]; active-loaded Sit:LGC (1:1) and Sit:LGL:LGC (1:0.8:0.2) Vs): 22-33%

CN(Cc1cnc2nc(N)nc(N)c2n1)c1ccc(C(=O)N[C@@H](CCC(=O)O)C(=O)O)cc1 [MTX, Methotrexate]
EE [%] ([2]; active-loaded Sit:LGL-p:DC-Chol (0.8:1:0.2) Vs): 88%

HGH: Human growth hormone, small protein, encapsulated active
EE [%] ([3]; protein (HGH) in Sit:LGL-p:DC-Chol (0.8:1:0.2) Vs): over 99%

b-FGF: basic fibroblast growth factor, small protein, encapsulated active
EE [%] ([3]; protein (b-FGF) in negatively charged Sit:LGC (1:1) Vs): > 99%
